Laboratory results taken from ChEMBL document CHEMBL1201861, “Genomics of Drug Sensitity in Cancer screening data, Wellcome Trust Sanger Institute”.

Tests used:
Test in all cases: cells
NMC-G1 = assay type: functional, cell-based, Homo sapiens; conditions: Homo sapiens, NMC-G1
Description: SANGER: Inhibition of human NMC-G1 cell growth in a cell viability assay.

TGBC1TKB = assay type: functional, cell-based, Homo sapiens; conditions: Homo sapiens, TGBC1TKB
Description: SANGER: Inhibition of human TGBC1TKB cell growth in a cell viability assay.

NCI-H1792 = assay type: functional, cell-based, Homo sapiens; conditions: Homo sapiens, NCI-H1792
Description: SANGER: Inhibition of human NCI-H1792 cell growth in a cell viability assay.

HT-1376 = assay type: functional, cell-based, Homo sapiens; conditions: Homo sapiens, HT-1376
Description: SANGER: Inhibition of human HT-1376 cell growth in a cell viability assay.

COLO-829 = assay type: functional, cell-based, Homo sapiens; conditions: Homo sapiens, COLO-829
Description: SANGER: Inhibition of human COLO-829 cell growth in a cell viability assay.

C2BBe1 = assay type: functional, cell-based, Homo sapiens; conditions: Homo sapiens, C2BBe1
Description: SANGER: Inhibition of human C2BBe1 cell growth in a cell viability assay.

EW-16 = assay type: functional, cell-based, Homo sapiens; conditions: Homo sapiens, EW-16
Description: SANGER: Inhibition of human EW-16 cell growth in a cell viability assay.

SK-MEL-28 = assay type: functional, cell-based; conditions: Homo sapiens
Description: SANGER: Inhibition of human SK-MEL-28 cell growth in a cell viability assay.

DMS-79 = assay type: functional, cell-based; conditions: Homo sapiens
Description: SANGER: Inhibition of human DMS-79 cell growth in a cell viability assay.

KYSE-270 = assay type: functional, cell-based, Homo sapiens; conditions: Homo sapiens, KYSE-270
Description: SANGER: Inhibition of human KYSE-270 cell growth in a cell viability assay.

TE-11 = assay type: functional, cell-based, Homo sapiens; conditions: Homo sapiens, TE-11
Description: SANGER: Inhibition of human TE-11 cell growth in a cell viability assay.

HSC-3 = assay type: functional, cell-based, Homo sapiens; conditions: Homo sapiens, HSC-3
Description: SANGER: Inhibition of human HSC-3 cell growth in a cell viability assay.

SW626 = assay type: functional, cell-based, Homo sapiens; conditions: Homo sapiens, SW626
Description: SANGER: Inhibition of human SW626 cell growth in a cell viability assay.

GI-ME-N = assay type: functional, cell-based, Homo sapiens; conditions: Homo sapiens, GI-ME-N
Description: SANGER: Inhibition of human GI-ME-N cell growth in a cell viability assay.

HCC1395 = assay type: functional, cell-based, Homo sapiens; conditions: Homo sapiens, HCC1395
Description: SANGER: Inhibition of human HCC1395 cell growth in a cell viability assay.

HTC-C3 = assay type: functional, cell-based, Homo sapiens; conditions: Homo sapiens, HTC-C3
Description: SANGER: Inhibition of human HTC-C3 cell growth in a cell viability assay.

K562 = assay type: functional, cell-based; conditions: Homo sapiens
Description: SANGER: Inhibition of human K-562 cell growth in a cell viability assay.

PANC-03-27 = assay type: functional, cell-based, Homo sapiens; conditions: Homo sapiens, PANC-03-27
Description: SANGER: Inhibition of human PANC-03-27 cell growth in a cell viability assay.

D-336MG = assay type: functional, cell-based, Homo sapiens; conditions: Homo sapiens, D-336MG
Description: SANGER: Inhibition of human D-336MG cell growth in a cell viability assay.

MDA-MB-175-VII = assay type: functional, cell-based, Homo sapiens; conditions: Homo sapiens, MDA-MB-175-VII
GOTO = assay type: functional, cell-based, Homo sapiens; conditions: Homo sapiens, GOTO
Description: SANGER: Inhibition of human GOTO cell growth in a cell viability assay.

HOP-92 = assay type: functional, cell-based, Homo sapiens; conditions: Homo sapiens, HOP-92
Description: SANGER: Inhibition of human HOP-92 cell growth in a cell viability assay.

NCI-H1563 = assay type: functional, cell-based, Homo sapiens; conditions: Homo sapiens, NCI-H1563
Description: SANGER: Inhibition of human NCI-H1563 cell growth in a cell viability assay.

CTV-1 = assay type: functional, cell-based; conditions: Homo sapiens
Description: SANGER: Inhibition of human CTV-1 cell growth in a cell viability assay.

HLE = assay type: functional, cell-based, Homo sapiens; conditions: Homo sapiens, HLE
Description: SANGER: Inhibition of human HLE cell growth in a cell viability assay.

D-502MG = assay type: functional, cell-based, Homo sapiens; conditions: Homo sapiens, D-502MG
Description: SANGER: Inhibition of human D-502MG cell growth in a cell viability assay.

MKN-45 = assay type: functional, cell-based, Homo sapiens; conditions: Homo sapiens, MKN-45
Description: SANGER: Inhibition of human MKN45 cell growth in a cell viability assay.

KYSE-140 = assay type: functional, cell-based, Homo sapiens; conditions: Homo sapiens, KYSE-140
Description: SANGER: Inhibition of human KYSE-140 cell growth in a cell viability assay.

S-117 = assay type: functional, cell-based, Homo sapiens; conditions: Homo sapiens, S-117
Description: SANGER: Inhibition of human S-117 cell growth in a cell viability assay.

MIA PaCa-2 = assay type: functional, cell-based, Homo sapiens; conditions: Homo sapiens, MIA PaCa-2
Description: SANGER: Inhibition of human MIA-PaCa-2 cell growth in a cell viability assay.

SNU-C2B = assay type: functional, cell-based, Homo sapiens; conditions: Homo sapiens, SNU-C2B
Description: SANGER: Inhibition of human SNU-C2B cell growth in a cell viability assay.

RXF 393 = assay type: functional, cell-based; conditions: Homo sapiens
Description: SANGER: Inhibition of human RXF393 cell growth in a cell viability assay.

NB13 = assay type: functional, cell-based, Homo sapiens; conditions: Homo sapiens, NB13
Description: SANGER: Inhibition of human NB13 cell growth in a cell viability assay.

Becker = assay type: functional, cell-based, Homo sapiens; conditions: Homo sapiens, Becker
Description: SANGER: Inhibition of human Becker cell growth in a cell viability assay.

RH-1 = assay type: functional, cell-based, Homo sapiens; conditions: Homo sapiens, RH-1
Description: SANGER: Inhibition of human RH-1 cell growth in a cell viability assay.

TYK-nu = assay type: functional, cell-based, Homo sapiens; conditions: Homo sapiens, TYK-nu
Description: SANGER: Inhibition of human TYK-nu cell growth in a cell viability assay.

SNU-5 = assay type: functional, cell-based; conditions: Homo sapiens
Description: SANGER: Inhibition of human NCI-SNU-5 cell growth in a cell viability assay.

MHH-NB-11 = assay type: functional, cell-based, Homo sapiens; conditions: Homo sapiens, MHH-NB-11
Description: SANGER: Inhibition of human MHH-NB-11 cell growth in a cell viability assay.

JVM-2 = assay type: functional, cell-based; conditions: Homo sapiens
Description: SANGER: Inhibition of human JVM-2 cell growth in a cell viability assay.

UACC-62 = assay type: functional, cell-based, Homo sapiens; conditions: Homo sapiens, UACC-62
Description: SANGER: Inhibition of human UACC-62 cell growth in a cell viability assay.

PANC-08-13 = assay type: functional, cell-based, Homo sapiens; conditions: Homo sapiens, PANC-08-13
Description: SANGER: Inhibition of human PANC-08-13 cell growth in a cell viability assay.

CAL-72 = assay type: functional, cell-based, Homo sapiens; conditions: Homo sapiens, CAL-72
Description: SANGER: Inhibition of human CAL-72 cell growth in a cell viability assay.

786-0 = assay type: functional, cell-based, Homo sapiens; conditions: Homo sapiens
Description: SANGER: Inhibition of human 786-0 cell growth in a cell viability assay.

ME-180 = assay type: functional, cell-based; conditions: Homo sapiens
Description: SANGER: Inhibition of human ME-180 cell growth in a cell viability assay.

OE33 = assay type: functional, cell-based, Homo sapiens; conditions: Homo sapiens, OE33
Description: SANGER: Inhibition of human OE33 cell growth in a cell viability assay.

D-542MG = assay type: functional, cell-based, Homo sapiens; conditions: Homo sapiens, D-542MG
Description: SANGER: Inhibition of human D-542MG cell growth in a cell viability assay.

DU-4475 = assay type: functional, cell-based; conditions: Homo sapiens
Description: SANGER: Inhibition of human DU-4475 cell growth in a cell viability assay.

LB1047-RCC = assay type: functional, cell-based, Homo sapiens; conditions: Homo sapiens, LB1047-RCC
Description: SANGER: Inhibition of human LB1047-RCC cell growth in a cell viability assay.

CP50-MEL-B = assay type: functional, cell-based, Homo sapiens; conditions: Homo sapiens, CP50-MEL-B
Description: SANGER: Inhibition of human CP50-MEL-B cell growth in a cell viability assay.

KNS-81-FD = assay type: functional, cell-based, Homo sapiens; conditions: Homo sapiens, KNS-81-FD
Description: SANGER: Inhibition of human KNS-81-FD cell growth in a cell viability assay.

## Nc1ccn([C@@H]2O[C@H](CO)[C@@H](O)[C@@H]2O)c(=O)n1 [CYTARABINE]
NMC-G1
  IC50: 1960 nM
TGBC1TKB
  IC50: > 2000 nM
NCI-H1792
  IC50: 1420 nM
HT-1376
  IC50: 1680 nM
COLO-829
  IC50: 1860 nM
C2BBe1
  IC50: 166 nM
EW-16
  IC50: 266 nM
SK-MEL-28
  IC50: 799 nM
DMS-79
  IC50: > 2000 nM
KYSE-270
  IC50: 849 nM
TE-11
  IC50: > 2000 nM
HSC-3
  IC50: 400 nM
SW626
  IC50: > 2000 nM
GI-ME-N
  IC50: 1660 nM
HCC1395
  IC50: > 2000 nM
HTC-C3
  IC50: 459 nM
K562
  IC50: > 2000 nM
PANC-03-27
  IC50: 897 nM
D-336MG
  IC50: 805 nM
MDA-MB-175-VII
  IC50: 1990 nM
GOTO
  IC50: 424 nM
HOP-92
  IC50: 354 nM
NCI-H1563
  IC50: > 2000 nM
CTV-1
  IC50: 84.7 nM
HLE
  IC50: 1590 nM
D-502MG
  IC50: > 2000 nM
MKN-45
  IC50: 1650 nM
KYSE-140
  IC50: > 2000 nM
S-117
  IC50: > 2000 nM
MIA PaCa-2
  IC50: 1490 nM
SNU-C2B
  IC50: > 2000 nM
RXF 393
  IC50: 700 nM
NB13
  IC50: > 2000 nM
Becker
  IC50: 1100 nM
RH-1
  IC50: 328 nM
TYK-nu
  IC50: 661 nM
SNU-5
  IC50: > 2000 nM
MHH-NB-11
  IC50: 728 nM
JVM-2
  IC50: > 2000 nM
UACC-62
  IC50: 666 nM
PANC-08-13
  IC50: > 2000 nM
CAL-72
  IC50: > 2000 nM
786-0
  IC50: 669 nM
ME-180
  IC50: > 2000 nM
OE33
  IC50: 1800 nM
D-542MG
  IC50: > 2000 nM
DU-4475
  IC50: 575 nM
LB1047-RCC
  IC50: 108 nM
CP50-MEL-B
  IC50: > 2000 nM
KNS-81-FD
  IC50: > 2000 nM

## CC(=O)O[C@@]12CO[C@@H]1C[C@H](O)[C@@]1(C)C(=O)[C@H](O)C3=C(C)[C@@H](OC(=O)[C@H](O)[C@@H](NC(=O)OC(C)(C)C)c4ccccc4)C[C@@](O)([C@@H](OC(=O)c4ccccc4)[C@H]21)C3(C)C [DOCETAXEL]
NMC-G1
  IC50: 0.517 nM
TGBC1TKB
  IC50: 9.1 nM
NCI-H1792
  IC50: 1.04 nM
HT-1376
  IC50: > 10 nM
COLO-829
  IC50: 7.25 nM
C2BBe1
  IC50: 1.82 nM
EW-16
  IC50: 1.35 nM
SK-MEL-28
  IC50: 2.03 nM
DMS-79
  IC50: > 10 nM
KYSE-270
  IC50: 2.78 nM
TE-11
  IC50: 0.569 nM
HSC-3
  IC50: 0.132 nM
SW626
  IC50: 6.24 nM
GI-ME-N
  IC50: 3.58 nM
HCC1395
  IC50: > 10 nM
HTC-C3
  IC50: 2.85 nM
K562
  IC50: > 10 nM
PANC-03-27
  IC50: 1.54 nM
D-336MG
  IC50: 1.69 nM
MDA-MB-175-VII
  IC50: > 10 nM
GOTO
  IC50: 2.27 nM
HOP-92
  IC50: 7.3 nM
NCI-H1563
  IC50: > 10 nM
CTV-1
  IC50: 3.37 nM
HLE
  IC50: 4.05 nM
D-502MG
  IC50: 4.1 nM
MKN-45
  IC50: 4.53 nM
KYSE-140
  IC50: 0.933 nM
S-117
  IC50: 4.86 nM
MIA PaCa-2
  IC50: 3.24 nM
SNU-C2B
  IC50: > 10 nM
RXF 393
  IC50: 2.22 nM
NB13
  IC50: 1.07 nM
Becker
  IC50: 1.83 nM
RH-1
  IC50: 0.386 nM
TYK-nu
  IC50: 2.32 nM
SNU-5
  IC50: 5.45 nM
MHH-NB-11
  IC50: > 10 nM
JVM-2
  IC50: > 10 nM
UACC-62
  IC50: 3.3 nM
PANC-08-13
  IC50: > 10 nM
CAL-72
  IC50: > 10 nM
786-0
  IC50: 7.86 nM
ME-180
  IC50: 1.69 nM
OE33
  IC50: > 10 nM
D-542MG
  IC50: > 10 nM
DU-4475
  IC50: 3.02 nM
LB1047-RCC
  IC50: 8.8 nM
CP50-MEL-B
  IC50: 6.93 nM
KNS-81-FD
  IC50: 3.99 nM
